According to the kinase profiling compilation of Christmann-Franck et al. (2016):

Assays:
Experiment in all cases: radiometric filter-binding kinase assay
DAPK1 (human) = DAPK1 (human) (UniProt P53355)
YES1 (human) = YES1 (human) (UniProt P07947)
CAMKK2 (human) = CAMKK2 (human) (UniProt Q96RR4)
SRPK1 (human) = SRPK1 (human) (UniProt Q96SB4)
PIM3 (human) = PIM3 (human) (UniProt Q86V86)
JAK2 JH1 JH2 (human) = JAK2 JH1 JH2 (human) (UniProt O60674)
HIPK2 (human) = HIPK2 (human) (UniProt Q9H2X6)
MKNK1 (human) = MKNK1 (human) (UniProt Q9BUB5)
MAPKAPK5 (human) = MAPKAPK5 (human) (UniProt Q8IW41)
MAPK13 (human) = MAPK13 (human) (UniProt O15264); details: compound 1.0 µM
AURKB (human) = AURKB (human) (UniProt Q96GD4)
MARK3 (human) = MARK3 (human) (UniProt P27448)
PHKG1 (human) = PHKG1 (human) (UniProt Q16816)
IGF1R (human) = IGF1R (human) (UniProt P08069)
LCK (mouse) = details: accession and sequence are those of the human protein
CaMK1 (human) = CaMK1 (human) (UniProt Q14012)
[1] = system: PAK2 (human), Q13177 [T402E]
STK3 (human) = STK3 (human) (UniProt Q13188); details: compound 0.1 µM
ROCK2 (rat) = details: accession and sequence are those of the human protein
BRSK2 (human) = BRSK2 (human) (UniProt Q8IWQ3)
FGFR1 (human) = FGFR1 (human) (UniProt P11362)
TAOK1 (human) = TAOK1 (human) (UniProt Q7L7X3)
CSNK2A1 (human) = CSNK2A1 (human) (UniProt P68400)
DYRK1A (human) = DYRK1A (human) (UniProt Q13627)
CLK2 (human) = CLK2 (human) (UniProt P49760)
HIPK1 (human) = HIPK1 (human) (UniProt Q86Z02)
MAPK11 (human) = MAPK11 (human) (UniProt Q15759)
MAPK8 (human) = MAPK8 (human) (UniProt P45983)
[2] = system: SGK1 (human), O00141 [S422D]
MINK1 (human) = MINK1 (human) (UniProt Q8N4C8)
MAPK10 (human) = MAPK10 (human) (UniProt P53779)
TBK1 (human) = TBK1 (human) (UniProt Q9UHD2)
CHEK1 (human) = CHEK1 (human) (UniProt O14757)
DYRK3 (human) = DYRK3 (human) (UniProt O43781); details: compound 1.0 µM
GCK (human) = GCK (human) (UniProt Q12851); details: compound 0.1 µM
EPHB2 (human) = EPHB2 (human) (UniProt P29323)

Chain of MARK3 (human) (P27448 whole entry, looked up): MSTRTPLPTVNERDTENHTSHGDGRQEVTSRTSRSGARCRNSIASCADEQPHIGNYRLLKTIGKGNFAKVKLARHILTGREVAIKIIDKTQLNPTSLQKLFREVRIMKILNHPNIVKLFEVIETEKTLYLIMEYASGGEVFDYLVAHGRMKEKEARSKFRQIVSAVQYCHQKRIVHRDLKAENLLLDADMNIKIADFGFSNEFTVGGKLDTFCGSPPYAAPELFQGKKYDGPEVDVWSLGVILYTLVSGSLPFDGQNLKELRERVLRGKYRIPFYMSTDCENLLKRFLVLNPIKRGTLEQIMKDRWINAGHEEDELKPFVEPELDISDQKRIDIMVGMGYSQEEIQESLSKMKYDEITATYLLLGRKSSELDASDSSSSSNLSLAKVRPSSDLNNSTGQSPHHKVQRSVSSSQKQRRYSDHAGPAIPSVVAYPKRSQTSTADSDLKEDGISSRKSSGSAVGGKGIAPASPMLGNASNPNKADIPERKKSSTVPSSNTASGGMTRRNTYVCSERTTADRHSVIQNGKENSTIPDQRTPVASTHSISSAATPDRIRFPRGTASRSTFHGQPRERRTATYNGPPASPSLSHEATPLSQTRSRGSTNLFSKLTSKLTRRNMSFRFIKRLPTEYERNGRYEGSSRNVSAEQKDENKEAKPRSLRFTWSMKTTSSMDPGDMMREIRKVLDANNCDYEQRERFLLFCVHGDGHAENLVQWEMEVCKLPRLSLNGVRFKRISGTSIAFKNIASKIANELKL
Chain of JAK2 JH1 JH2 (human) (O60674 whole entry, looked up): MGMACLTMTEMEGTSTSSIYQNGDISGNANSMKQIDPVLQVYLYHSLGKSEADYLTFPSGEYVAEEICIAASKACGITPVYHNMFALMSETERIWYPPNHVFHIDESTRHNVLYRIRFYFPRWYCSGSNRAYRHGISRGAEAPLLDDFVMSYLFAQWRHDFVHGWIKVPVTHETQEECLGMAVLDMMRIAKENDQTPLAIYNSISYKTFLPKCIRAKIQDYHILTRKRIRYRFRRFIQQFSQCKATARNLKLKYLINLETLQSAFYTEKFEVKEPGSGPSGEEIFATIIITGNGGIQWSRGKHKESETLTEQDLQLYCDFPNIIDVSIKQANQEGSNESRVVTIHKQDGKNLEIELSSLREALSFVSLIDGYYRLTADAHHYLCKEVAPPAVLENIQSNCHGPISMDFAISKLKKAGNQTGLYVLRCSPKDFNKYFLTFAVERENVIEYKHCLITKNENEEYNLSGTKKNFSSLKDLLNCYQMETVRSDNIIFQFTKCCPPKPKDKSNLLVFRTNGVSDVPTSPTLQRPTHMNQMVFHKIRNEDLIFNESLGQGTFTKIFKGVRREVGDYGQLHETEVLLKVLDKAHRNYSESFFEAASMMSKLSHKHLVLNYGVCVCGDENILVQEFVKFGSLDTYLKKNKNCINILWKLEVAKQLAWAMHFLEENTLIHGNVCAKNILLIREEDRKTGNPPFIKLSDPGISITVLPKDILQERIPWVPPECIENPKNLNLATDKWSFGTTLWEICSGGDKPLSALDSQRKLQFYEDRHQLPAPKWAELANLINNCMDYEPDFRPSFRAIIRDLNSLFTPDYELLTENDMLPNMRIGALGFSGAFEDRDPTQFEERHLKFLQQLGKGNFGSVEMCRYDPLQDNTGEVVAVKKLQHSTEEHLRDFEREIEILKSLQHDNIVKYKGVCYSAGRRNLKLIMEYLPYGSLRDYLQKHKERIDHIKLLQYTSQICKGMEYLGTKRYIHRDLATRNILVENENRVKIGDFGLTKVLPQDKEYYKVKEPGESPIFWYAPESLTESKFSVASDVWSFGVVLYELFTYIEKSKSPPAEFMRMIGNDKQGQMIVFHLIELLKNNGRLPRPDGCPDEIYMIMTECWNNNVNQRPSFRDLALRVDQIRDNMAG
Chain of PAK2 (human), Q13177 [T402E] (Q13177 whole entry T402E, looked up): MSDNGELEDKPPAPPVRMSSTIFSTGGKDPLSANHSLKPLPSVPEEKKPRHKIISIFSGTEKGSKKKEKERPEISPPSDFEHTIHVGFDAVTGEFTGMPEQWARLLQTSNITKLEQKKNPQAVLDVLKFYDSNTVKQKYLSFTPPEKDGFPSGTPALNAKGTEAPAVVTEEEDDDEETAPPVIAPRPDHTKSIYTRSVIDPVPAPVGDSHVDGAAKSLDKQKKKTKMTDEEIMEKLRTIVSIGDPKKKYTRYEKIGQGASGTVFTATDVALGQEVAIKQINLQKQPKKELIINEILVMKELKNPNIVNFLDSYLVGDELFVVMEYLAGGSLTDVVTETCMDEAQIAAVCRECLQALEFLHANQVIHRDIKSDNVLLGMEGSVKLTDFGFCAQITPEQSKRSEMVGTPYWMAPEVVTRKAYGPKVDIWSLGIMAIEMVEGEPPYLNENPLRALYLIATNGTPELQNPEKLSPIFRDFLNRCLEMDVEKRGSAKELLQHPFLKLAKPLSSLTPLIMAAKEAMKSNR
Chain of CHEK1 (human) (O14757 whole entry, looked up): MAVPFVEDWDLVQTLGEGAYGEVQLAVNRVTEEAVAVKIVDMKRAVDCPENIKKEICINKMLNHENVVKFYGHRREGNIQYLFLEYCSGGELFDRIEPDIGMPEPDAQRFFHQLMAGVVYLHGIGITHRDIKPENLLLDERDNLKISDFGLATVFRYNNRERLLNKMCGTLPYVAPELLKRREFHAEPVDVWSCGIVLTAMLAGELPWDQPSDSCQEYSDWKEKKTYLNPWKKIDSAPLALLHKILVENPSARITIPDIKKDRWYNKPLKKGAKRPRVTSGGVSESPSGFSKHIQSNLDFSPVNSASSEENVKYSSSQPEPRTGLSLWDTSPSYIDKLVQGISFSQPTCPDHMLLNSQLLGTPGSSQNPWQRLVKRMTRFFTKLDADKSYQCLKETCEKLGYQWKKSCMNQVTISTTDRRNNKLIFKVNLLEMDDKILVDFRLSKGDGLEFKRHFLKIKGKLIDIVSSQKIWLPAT
Chain of TAOK1 (human) (Q7L7X3 whole entry, looked up): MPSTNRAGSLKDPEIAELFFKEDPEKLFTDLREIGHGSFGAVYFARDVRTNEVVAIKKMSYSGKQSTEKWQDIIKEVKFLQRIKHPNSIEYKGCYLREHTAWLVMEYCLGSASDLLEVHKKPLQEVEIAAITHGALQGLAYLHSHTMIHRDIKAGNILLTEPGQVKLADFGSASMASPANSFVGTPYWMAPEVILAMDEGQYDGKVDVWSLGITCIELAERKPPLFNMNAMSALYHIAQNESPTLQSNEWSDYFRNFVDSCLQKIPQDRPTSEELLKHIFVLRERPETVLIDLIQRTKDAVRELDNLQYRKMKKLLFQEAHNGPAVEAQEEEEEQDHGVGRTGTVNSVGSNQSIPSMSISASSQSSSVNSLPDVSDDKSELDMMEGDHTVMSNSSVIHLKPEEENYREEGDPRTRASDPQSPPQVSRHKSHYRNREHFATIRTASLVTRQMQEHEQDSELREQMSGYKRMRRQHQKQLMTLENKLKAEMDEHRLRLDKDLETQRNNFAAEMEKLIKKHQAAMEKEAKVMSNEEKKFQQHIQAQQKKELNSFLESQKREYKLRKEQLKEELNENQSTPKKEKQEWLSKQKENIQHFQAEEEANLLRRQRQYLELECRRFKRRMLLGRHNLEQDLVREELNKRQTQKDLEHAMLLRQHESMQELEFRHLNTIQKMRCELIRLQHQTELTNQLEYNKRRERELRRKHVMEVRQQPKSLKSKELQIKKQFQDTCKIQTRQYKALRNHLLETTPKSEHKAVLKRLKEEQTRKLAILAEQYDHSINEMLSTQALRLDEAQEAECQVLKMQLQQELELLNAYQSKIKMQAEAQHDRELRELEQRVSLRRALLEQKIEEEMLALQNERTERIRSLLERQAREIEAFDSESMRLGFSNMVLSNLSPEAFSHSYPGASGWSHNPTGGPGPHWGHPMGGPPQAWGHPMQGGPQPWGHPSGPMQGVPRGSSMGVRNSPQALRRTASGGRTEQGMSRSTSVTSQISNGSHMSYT
Chain of AURKB (human) (Q96GD4 whole entry, looked up): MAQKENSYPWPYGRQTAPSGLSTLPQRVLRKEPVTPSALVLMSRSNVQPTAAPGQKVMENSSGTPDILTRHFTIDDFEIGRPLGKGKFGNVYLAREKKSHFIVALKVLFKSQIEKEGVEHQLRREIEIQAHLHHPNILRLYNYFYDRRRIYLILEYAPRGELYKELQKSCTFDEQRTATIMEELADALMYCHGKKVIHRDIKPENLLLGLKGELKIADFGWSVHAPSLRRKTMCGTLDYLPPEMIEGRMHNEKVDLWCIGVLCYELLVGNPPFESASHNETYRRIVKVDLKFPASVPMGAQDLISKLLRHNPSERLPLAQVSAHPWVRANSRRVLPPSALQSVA
Chain of BRSK2 (human) (Q8IWQ3 whole entry, looked up): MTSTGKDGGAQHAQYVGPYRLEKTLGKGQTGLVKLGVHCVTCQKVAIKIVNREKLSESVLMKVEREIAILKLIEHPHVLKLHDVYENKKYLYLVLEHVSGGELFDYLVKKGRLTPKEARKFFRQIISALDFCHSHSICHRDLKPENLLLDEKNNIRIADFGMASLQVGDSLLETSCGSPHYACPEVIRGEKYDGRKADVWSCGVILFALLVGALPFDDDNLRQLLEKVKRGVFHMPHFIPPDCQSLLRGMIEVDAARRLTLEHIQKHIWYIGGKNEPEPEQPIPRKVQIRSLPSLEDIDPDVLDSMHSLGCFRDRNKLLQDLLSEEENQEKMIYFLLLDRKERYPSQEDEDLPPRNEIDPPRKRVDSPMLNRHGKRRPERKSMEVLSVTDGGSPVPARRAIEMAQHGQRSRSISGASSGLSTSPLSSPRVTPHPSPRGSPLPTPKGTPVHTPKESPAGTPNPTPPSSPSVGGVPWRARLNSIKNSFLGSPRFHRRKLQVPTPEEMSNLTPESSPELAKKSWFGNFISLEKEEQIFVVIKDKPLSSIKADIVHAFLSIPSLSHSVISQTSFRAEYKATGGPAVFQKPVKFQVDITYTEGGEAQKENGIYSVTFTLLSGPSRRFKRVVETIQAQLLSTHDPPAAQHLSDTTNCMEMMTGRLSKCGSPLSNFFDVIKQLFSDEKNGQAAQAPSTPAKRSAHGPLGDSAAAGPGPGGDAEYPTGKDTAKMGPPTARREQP

Q: Which results are given for COc1ccc(-n2ncc3cnc(Nc4cc(OC)c(OC)c(OCCCN5CCN(C)CC5)c4)nc32)cc1?
A: residual activity (DAPK1 (human); compound 0.1 µM): 51%; residual activity (DAPK1 (human); compound 1.0 µM): 15%; residual activity (YES1 (human); compound 0.1 µM): 16%; residual activity (YES1 (human); compound 1.0 µM): 7%; residual activity (CAMKK2 (human); compound 0.1 µM): 58%; residual activity (CAMKK2 (human); compound 1.0 µM): 28%; residual activity (SRPK1 (human); compound 0.1 µM): 104%; residual activity (SRPK1 (human); compound 1.0 µM): 87%; residual activity (PIM3 (human); compound 0.1 µM): 91%; residual activity (PIM3 (human); compound 1.0 µM): 63%; residual activity (JAK2 JH1 JH2 (human); compound 0.1 µM): 4%; residual activity (JAK2 JH1 JH2 (human); compound 1.0 µM): 3%; residual activity (HIPK2 (human); compound 0.1 µM): 31%; residual activity (HIPK2 (human); compound 1.0 µM): 10%; residual activity (MKNK1 (human); compound 0.1 µM): 59%; residual activity (MKNK1 (human); compound 1.0 µM): 17%; residual activity (MAPKAPK5 (human); compound 0.1 µM): 98%; residual activity (MAPKAPK5 (human); compound 1.0 µM): 85%; residual activity (MAPK13 (human)): 68%; residual activity (AURKB (human); compound 0.1 µM): 36%; residual activity (AURKB (human); compound 1.0 µM): 11%; residual activity (MARK3 (human); compound 0.1 µM): 41%; residual activity (MARK3 (human); compound 1.0 µM): 16%; residual activity (PHKG1 (human); compound 0.1 µM): 56%; residual activity (PHKG1 (human); compound 1.0 µM): 12%; residual activity (IGF1R (human); compound 0.1 µM): 104%; residual activity (IGF1R (human); compound 1.0 µM): 6%; residual activity (LCK (mouse); compound 0.1 µM): 10%; residual activity (LCK (mouse); compound 1.0 µM): 4%; residual activity (CaMK1 (human); compound 0.1 µM): 67%; residual activity (CaMK1 (human); compound 1.0 µM): 26%; residual activity ([1]; compound 0.1 µM): 50%; residual activity ([1]; compound 1.0 µM): 14%; residual activity (STK3 (human)): 78%; residual activity (ROCK2 (rat); compound 0.1 µM): 49%; residual activity (ROCK2 (rat); compound 1.0 µM): 25%; residual activity (BRSK2 (human); compound 0.1 µM): 84%; residual activity (BRSK2 (human); compound 1.0 µM): 35%; residual activity (FGFR1 (human); compound 0.1 µM): 20%; residual activity (FGFR1 (human); compound 1.0 µM): 8%; residual activity (TAOK1 (human); compound 0.1 µM): 95%; residual activity (TAOK1 (human); compound 1.0 µM): 74%; residual activity (CSNK2A1 (human); compound 0.1 µM): 33%; residual activity (CSNK2A1 (human); compound 1.0 µM): 6%; residual activity (DYRK1A (human); compound 0.1 µM): 57%; residual activity (DYRK1A (human); compound 1.0 µM): 12%; residual activity (CLK2 (human); compound 0.1 µM): 30%; residual activity (CLK2 (human); compound 1.0 µM): 11%; residual activity (HIPK1 (human); compound 0.1 µM): 44%; residual activity (HIPK1 (human); compound 1.0 µM): 17%; residual activity (MAPK11 (human); compound 0.1 µM): 103%; residual activity (MAPK11 (human); compound 1.0 µM): 95%; residual activity (MAPK8 (human); compound 0.1 µM): 89%; residual activity (MAPK8 (human); compound 1.0 µM): 38%; residual activity ([2]; compound 0.1 µM): 107%; residual activity ([2]; compound 1.0 µM): 61%; residual activity (MINK1 (human); compound 0.1 µM): 104%; residual activity (MINK1 (human); compound 1.0 µM): 57%; residual activity (MAPK10 (human); compound 0.1 µM): 65%; residual activity (MAPK10 (human); compound 1.0 µM): 39%; residual activity (TBK1 (human); compound 0.1 µM): 14%; residual activity (TBK1 (human); compound 1.0 µM): 8%; residual activity (CHEK1 (human); compound 0.1 µM): 72%; residual activity (CHEK1 (human); compound 1.0 µM): 20%; residual activity (DYRK3 (human)): 10%; residual activity (GCK (human)): 29%; residual activity (EPHB2 (human); compound 0.1 µM): 23%; residual activity (EPHB2 (human); compound 1.0 µM): 6%
